Results from patent publication US20260125362A1, “TARGETED PROTEIN DEGRADATION OF PARP14 FOR USE IN THERAPY” (AbbVie Biotechnology Ltd, priority 2019, published 2026).

Assays:
[1] = target: T1, PARP14 (Homo sapiens, UniProt Q460N5); experiment: PARP14 degradation assay (Western blot) in KYSE270 cells; format: cell-based; conditions: 24 h
T1 construct: endogenous in cells; host or cells: KYSE270
Description: KYSE270 cells were seeded at a density of […] in 6-well plates and incubated overnight. Once attached, cells were treated with the compounds of Examples 1-4 at increasing concentrations (0.001 μM, 0.01 μM, 0.1 μM, 1 μM, and 10 μM; 0.003 μM, 0.03 μM, 0.3 μM, and 3 μM were also evaluated for the compound of Example 1), or with DMSO for 24 h. Media was gently aspirated and cells washed 3 times with 2 mL of ice cold PBS while on ice. The PBS was completely aspirated and 75 μl freshly prepared lysis buffer (Thermo Fisher 78501) was added to cells before scraping into the buffer. Lysates were collected in microcentrifuge tubes and incubated on ice for 15 minutes. Lysates were centrifuged at 10,000 rpm for 15 min at 4° C. and supernatants collected into fresh microcentrifuge tubes. Protein concentration was measured using a reducing agent compatible with the Pierce BCA Protein Assay Kit (Thermo Fisher 23250). Samples were prepared in loading buffer (LI-COR 928-40004) containing 5% β-mercaptoethanol, and incubated at 95° C. for 5 min. Protein lysates were resolved on 4-12% Tris-Acetate gels in MOPS running buffer with 60 μg of protein per well. Western blot transfers were done with PVDF membranes (LI-COR Immobilon) with 20 volts for 14 minutes. Primary antibodies (PARP14: in house generated mouse antibody (15A6 LotIC), β-actin: D6A8 (8457)) were incubated at 1:1,000 dilution using the odyssey blocking buffer (LI-COR 927-50000) for 2 h at room temperature and detected with secondary antibody (LI-COR 926-68072, 926-32211). Mouse antibody 15A6 Lot1C was generated by immunizing with recombinant human PARP14 catalytic domain protein. After hybridoma fusion, the parental clones were screened for reactivity against PARP14 catalytic domain, which were then subcloned to generate monoclones including 15A6-1. Monoclonal supernatants were tested by Western blotting against THP-1 and THP-1 PARP14 KO cells to confirm reactivity. The PARP14 antibody was produced by culturing the 15A6-1 hybridoma monoclone in 1L of serum free media+2% low IgG FBS. […]

[2] = target: T2, catalytic domain of human PARP14 (Homo sapiens, UniProt Q460N5); experiment: Enzymatic assay for inhibition of PARP14 (DELFIA, auto-modification with biotin-NAD); format: biochemical; conditions: compounds corresponding to group Q
T2 construct: made in house; host or cells: Escherichia coli
T2 sequence (Q460N5 1611-1801): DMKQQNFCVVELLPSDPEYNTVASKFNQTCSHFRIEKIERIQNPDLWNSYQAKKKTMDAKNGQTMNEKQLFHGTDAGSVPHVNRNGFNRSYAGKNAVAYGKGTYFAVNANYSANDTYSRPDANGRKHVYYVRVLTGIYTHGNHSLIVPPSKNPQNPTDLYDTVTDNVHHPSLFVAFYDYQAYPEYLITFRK
Description: The catalytic domain of human PARP14 (residues 1611 to 1801, GenBank Accession No. NM_017554) was overexpressed in Escherichia coli cells. An N-teininal His-TEV fusion tag was used to purify the protein from cell lysates. The His-TEV tag was left on the protein for use in the enzymatic assay.
Enzymatic inhibition of PARP14 was measured using a dissociation-enhanced lanthanide fluorescence immunoassay (DELFIA) monitoring the auto-modification of PARP14 by biotinylated nicotinamide adenine dinucleotide (biotin-NAD), 1 μL of a dose response curve of each test compound was spotted in 384-well nickel-coated white microplates (Therno) using a Mosquito (TTP Labtech). Reactions were performed in a 50 p L volume by adding 40 μL of PARP14 in assay buffer (20 mM HEPES pH=8, 100 mM NaCl, 0.1% bovine serum albumin. 2 mM DTT and 0.002% Tween20), incubating with test compound at 25° C. for 30 min, then adding 10 μL of biotin-NA D (Biolog). The final concentrations of PARP14 and biotin-NAD are 50 nM and 3 μM, respectively. Reactions proceeded at 25° C. for 3 h, then were quenched with 5 μL of 10 mM unmodified nicotinamide adenine dinucleotide (Sigma-Aldrich). The quenched reactions were washed 3 times with 100 μL of TBST wash buffer (50 mM Tris-HCl, 150 mnM NaCl and 0.1% Tween20). Next, to the washed and dried plate was added 25 μL of DELFIA Europium-NI streptavidin (Perkin Elmer) diluted in DELFIA assay buffer (Perkin Elmer). After a 30 min incubation at 25° C., the plate was washed 5 times with TBST wash buffer. Finally, 25 μL of DELFIA enhancement solution was added. After a 5 min incubation the plate was read on an Envision platereader equipped with a LANCE/DELFIA top mirror (Perkin Elmer) using excitation of 340 nm and emission of 615 nm to measure the amount of Europium present in each well, informing on the amount of biotin-NAD that was transferred in the automodification reaction. Control wells containing a negative control of 2% DMSO vehicle or a positive control of 100 μM rucaparib were used to calculate the % inhibition as described below:
where ex615cmpd is the emission from the compound treated well, ex615min, is the emission from the rucaparib treated positive control well and ex615max is the emission from the DMSO treated negative control well.
The % inhibition values were plotted as a function of compound concentration and the following 4-parameter fit was applied to derive the IC50 values:
where top and bottom are normally allowed to float, but may be fixed at 100 or 0 respectively in a 3-parameter fit. The Hill Coefficient is normally allowed to float but may also be fixed at 1 in a 3-parameter fit. Y is the % inhibition and X is the compound concentration.

[3] = system: IL-10 production; experiment: Reduction of IL-10 production in IL-4 stimulated M2-like macrophages (ELISA); format: cell-based; conditions: IL-4 stimulated M2-like macrophages from human monocytes; 1, 0.1 or 0.01 μM
Description: Monocytes were isolated from peripheral human blood and cultured in the presence of M-CSF and the compound of Example 1 (at 1, 0.1 or 0.01 μM) for 72 h. M-CSF differentiates monocytes into M-0 macrophages. Subsequently medium was replaced with fresh medium containing IL-4 and the compound of Example 1 (at 1, 0.1 or 0.01 μM), and cells were incubated for another 48 h. Isolation of primary human monocytes from whole blood: Primary monocytes were isolated from whole blood (iSPECIMEN; 500 mL) collected from healthy donors. Blood was diluted at a 1:1 ratio with EasySep buffer (STEMCELL Technologies 20144) and layered onto lymphoprep (STEMCELL Technologies 07811) in SepMate tubes (STEMCELL Technologies 85450) for PBMC isolation according to the manufacturer's instructions. […] Cells were treated with the compound of Example 1 or DMSO on day 6 after seeding at 1 μmol/L, 0.1 μmol/L, and 0.01 μmol/L. IL-10 determination: Levels of IL-10 in the supernatants of human primary M2 macrophages were determined with the IL-10 ELISA kit (STEMCELL Technologies 02013) according to the manufacturer's instructions. Briefly, supernatants were collected at the indicated time point and depleted of any floating cells before being stored at −80° C. until ready to use. IL-10 concentrations were determined from the kit's IL-10 standard curve and normalized to total cell protein.

T1 sequence (Q460N5 whole entry): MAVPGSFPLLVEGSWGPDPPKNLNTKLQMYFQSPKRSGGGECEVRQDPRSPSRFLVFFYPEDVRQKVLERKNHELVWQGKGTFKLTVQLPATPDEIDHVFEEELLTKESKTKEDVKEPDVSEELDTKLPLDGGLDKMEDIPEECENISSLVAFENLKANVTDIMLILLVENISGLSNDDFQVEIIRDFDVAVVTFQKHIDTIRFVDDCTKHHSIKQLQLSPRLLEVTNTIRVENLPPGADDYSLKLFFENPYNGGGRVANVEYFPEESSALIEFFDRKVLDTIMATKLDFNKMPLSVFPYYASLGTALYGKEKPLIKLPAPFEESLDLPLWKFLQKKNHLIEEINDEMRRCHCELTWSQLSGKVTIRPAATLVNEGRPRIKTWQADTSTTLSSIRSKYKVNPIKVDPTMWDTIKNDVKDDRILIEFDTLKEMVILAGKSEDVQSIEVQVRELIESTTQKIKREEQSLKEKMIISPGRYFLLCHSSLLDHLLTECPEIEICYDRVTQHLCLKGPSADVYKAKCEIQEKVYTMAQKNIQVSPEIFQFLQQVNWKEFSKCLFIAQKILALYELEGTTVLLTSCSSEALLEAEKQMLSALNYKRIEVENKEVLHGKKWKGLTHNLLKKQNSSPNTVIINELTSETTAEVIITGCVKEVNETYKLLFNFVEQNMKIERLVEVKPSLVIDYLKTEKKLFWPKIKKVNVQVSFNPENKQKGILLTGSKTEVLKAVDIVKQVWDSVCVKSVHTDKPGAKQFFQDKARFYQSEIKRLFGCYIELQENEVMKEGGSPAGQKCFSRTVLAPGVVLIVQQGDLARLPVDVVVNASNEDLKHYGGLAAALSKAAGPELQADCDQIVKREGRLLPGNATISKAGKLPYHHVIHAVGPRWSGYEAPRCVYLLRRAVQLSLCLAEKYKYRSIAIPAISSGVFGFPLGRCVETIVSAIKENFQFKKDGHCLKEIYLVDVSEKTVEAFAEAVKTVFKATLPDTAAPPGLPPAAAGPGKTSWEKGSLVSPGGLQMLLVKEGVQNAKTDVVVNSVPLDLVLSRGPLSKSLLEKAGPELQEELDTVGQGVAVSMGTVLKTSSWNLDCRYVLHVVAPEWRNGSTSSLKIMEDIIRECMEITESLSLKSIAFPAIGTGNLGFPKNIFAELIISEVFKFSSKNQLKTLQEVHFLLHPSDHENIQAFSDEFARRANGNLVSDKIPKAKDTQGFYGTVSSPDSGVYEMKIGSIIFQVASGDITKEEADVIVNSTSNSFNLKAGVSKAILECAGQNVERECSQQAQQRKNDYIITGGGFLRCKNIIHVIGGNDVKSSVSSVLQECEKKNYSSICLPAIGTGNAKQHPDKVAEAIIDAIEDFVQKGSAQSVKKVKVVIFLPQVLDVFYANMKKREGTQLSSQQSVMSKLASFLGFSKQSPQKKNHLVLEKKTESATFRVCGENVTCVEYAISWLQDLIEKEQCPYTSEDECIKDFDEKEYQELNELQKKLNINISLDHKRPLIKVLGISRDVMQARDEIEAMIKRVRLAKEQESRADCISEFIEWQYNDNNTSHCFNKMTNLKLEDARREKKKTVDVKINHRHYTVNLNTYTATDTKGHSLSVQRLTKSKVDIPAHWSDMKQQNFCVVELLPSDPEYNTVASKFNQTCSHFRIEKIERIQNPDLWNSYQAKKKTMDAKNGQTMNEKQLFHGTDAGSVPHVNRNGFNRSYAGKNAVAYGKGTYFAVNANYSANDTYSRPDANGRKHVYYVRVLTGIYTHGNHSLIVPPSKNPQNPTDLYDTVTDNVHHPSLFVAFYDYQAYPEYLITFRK

In the case of `O=C1CCC(N2C(=O)c3cccc(NCCCCCCCC(=O)N[C@H]4CC[C@H](SCc5nc6cc(OCC7CCOCC7)cc(F)c6c(=O)[nH]5)CC4)c3C2=O)C(=O)N1` (some centres unmarked) [Example 3, 8-((2-(2,6-dioxopiperidin-3-yl)-1,3-dioxoisoindolin-4-yl)amino)-N-((1r,4r)-4-(((5-fluoro-4-oxo-7-((tetrahydro-2H-pyran-4-yl)methoxy)-3,4-dihydroquinazolin-2-yl)methyl)thio)cyclohexyl)octanamide], the “hook effect at higher concentrations (PARP14 degradation)” value (from here on “hook effect at higher concentrations”) [1] is reported as “amelioration of efficacy”.
`O=c1[nH]c(CS[C@H]2CC[C@H](O)CC2)nc2cc(OCC3CCOCC3)cc(F)c12` gave an IC50 [2] of under 1000 nM.
`O=c1[nH]c(CS[C@H]2CC[C@@H](O)CC2)nc2cc(OCC3CCOCC3)cc(F)c12` was tested, and the IC50 [2] was under 1000 nM.
For `O=C1CCC(N2C(=O)c3cccc(NCCC(=O)N[C@H]4CC[C@H](SCc5nc6cc(OCC7CCOCC7)cc(F)c6c(=O)[nH]5)CC4)c3C2=O)C(=O)N1` (some centres unmarked) [Example 4, 3-((2-(2,6-dioxopiperidin-3-yl)-1,3-dioxoisoindolin-4-yl)amino)-N-((1r,4r)-4-(((5-fluoro-4-oxo-7-((tetrahydro-2H-pyran-4-yl)methoxy)-3,4-dihydroquinazolin-2-yl)methyl)thio)cyclohexyl)propanamide], the “hook effect at higher concentrations” value [1] was “amelioration of efficacy”.
`O=c1[nH]c(CSC2CCNCC2)nc2cc(NC3CCCC3)cc(F)c12` showed an IC50 [2] of under 1000 nM.
`O=C(CN1CCC(SCc2nc3cc(NC4CCCC4)cc(F)c3c(=O)[nH]2)CC1)NCCCCCCNc1cccc2c1C(=O)N(C1CCC(=O)NC1=O)C2=O.O=C(O)C(F)(F)F` (centres unmarked) [Example 1, 2-(4-(((7-(Cyclopentylamino)-5-fluoro-4-oxo-3,4-dihydroquinazolin-2-yl)methyl)thio)piperidin-1-yl)-N-(6-((2-(2,6-dioxopiperidin-3-yl)-1,3-dioxoisoindolin-4-yl)amino)hexyl)acetamide trifluoroacetate] was tested, and the “IL-10 production (IL-10 levels in tissue culture supernatant, ELISA)” value [3] was “decreased IL-10 production” and the “hook effect at higher concentrations” value [1] was “amelioration of efficacy”.
`O=c1[nH]c(CSC2CCC(O)CC2)nc2cc(OCC3CCCOC3)cc(F)c12` (centres unmarked) gave an IC50 [2] of under 1000 nM.
